Values of other authors as cited in patent publication US11499155B2, “Dynamin 2 inhibitor for the treatment of centronuclear myopathies” (UNIVERSITE DE STRASBOURG, priority 2013, dated 2022).
pIC50: −log10 of the molar value.

Legend:
mitochondrial division = conditions: read-out: IC50 (mitochondrial division inhibitor)
[1] = molecular target: receptor-mediated and synaptic vesicle endocytosis; conditions: read-out: IC50 for inhibition of receptor-mediated and synaptic vesicle endocytosis

| SMILES | pIC50 (Dynamin) | also measured |
| --- | --- | --- |
| COc1cc(-n2c(S)nc3ccccc3c2=O)c(Cl)cc1Cl [M-divi 1, 3-(2,4-Dichloro-5-methoxyphenyl)-2-sulfanylquinazolin-4(3H)-one] |  | pIC50 (mitochondrial division): 5.00 |
| CCCCCCCCCCCCCC[N+](C)(C)C [MiTMAB, Tetradecyltrimethylammonium bromide] |  | pIC50 [1]: 5.66 |
| CCCCCCCCCCCCCCCCCC[N+](C)(C)CCN1C(=O)C2C3CCC(O3)C2C1=O (stereo not shown) [RTIL-13, 4-(N,N-Dimethyl-N-octadecyl-N-ethyl)-4-aza-10-oxatricyclo-[5.2.1]decane-3,5-dione bromide] | 5.64 |  |
| O=C(NN=Cc1cc(O)c(O)cc1O)c1cc2ccccc2cc1O [Hydroxy-Dynasore, 3-Hydroxy-N′-[(2,4,5-trihydroxyphenyl)methylidene]naphthalene-2-carbohydrazide] | 5.60 |  |
